Experimental data from US4110327A, “2,3 Diketo-piperazinocarbonylamino alkanoic acids and derivatives” (Toyama Chemical Co., Ltd., priority 1974, dated 1978).

Key:
[1] = test system: Escherichia coli NIHJ; assay: MIC against standard strain, plate method; format: cell-based; conditions: unit assumed
Procedure, shortened: (§1)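 MIC values come from the plate method on heart infusion agar at pH 7.4, with each plate receiving 10^4 cells from a 10^6 cells/ml suspension.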

[2] = test system: Klebsiella pneumoniae; assay: MIC against standard strain, plate method; format: cell-based; conditions: unit assumed
Procedure, shortened: as §1

[3] = test system: Proteus vulgaris 3027; assay: MIC against standard strain, plate method; format: cell-based; conditions: Proteus vulgaris 3027, standard strain; unit assumed
Procedure, shortened: as §1

[4] = test system: Pseudomonas aeruginosa I.F.O.; assay: MIC against standard strain, plate method; format: cell-based; conditions: unit assumed
Procedure, shortened: as §1

[5] = test system: Staphylococcus aureus 209p; assay: MIC against standard strain, plate method; format: cell-based; conditions: unit assumed
Procedure, shortened: as §1

[6] = test system: Staphylococcus aureus; assay: MIC against clinical isolates; format: cell-based; conditions: unit assumed
[7] = test system: Escherichia coli; assay: MIC against clinical isolates; format: cell-based; conditions: unit assumed
[8] = test system: Pseudomonas aeruginosa; assay: MIC against clinical isolates; format: cell-based; conditions: unit assumed
[9] = test system: Klebsiella pneumoniae; assay: MIC against clinical isolates; format: cell-based; conditions: unit assumed
[10] = test system: Shigella flexneri; assay: MIC against clinical isolates; format: cell-based; conditions: clinical isolate JS 11215; unit assumed
Experimental: (§2) The minimum inhibitory concentrations (MIC) was determined by the plate method disclosed in "Chemotherapy" (Japan), Vol. 16, (1968), pages 98 - 99. The culture medium used was a Heart infusion agar (pH 7.4). The number of the cells per plate used in the inoculum as 10^4 (10^6 cells/ml).
(§3) MIC was determined in the same manner as in the preceding paragraph (1).

[11] = test system: Shigella sonnei; assay: MIC against clinical isolates; format: cell-based; conditions: unit assumed
Experimental: as §2, §3

[12] = test system: Salmonella typhi; assay: MIC against clinical isolates; format: cell-based; conditions: unit assumed
[13] = test system: Salmonella typhi-murium; assay: MIC against clinical isolates; format: cell-based; conditions: unit assumed
[14] = test system: Proteus mirabilis; assay: MIC against clinical isolates; format: cell-based; conditions: clinical isolate, unit assumed
[15] = test system: Proteus morganii; assay: MIC against clinical isolates; format: cell-based; conditions: clinical isolate, unit assumed
[16] = test system: Proteus vulgaris; assay: MIC against clinical isolates; format: cell-based; conditions: clinical isolate, unit assumed
[17] = test system: Proteus rettgeri; assay: MIC against clinical isolates; format: cell-based; conditions: clinical isolate, unit assumed
[18] = test system: β-lactamase; assay: Resistant activity against β-lactamase, iodometric assay; format: biochemical, Pseudomonas aeruginosa GN 238; conditions: relative to Potassium Penicillin G = 100
Experimental: (3) Resistant activity against β-lactamase, Pseudomonas aergionan GN 238:
The resistant activity of each compound against β-lactamase was measured in the manner described below.
β-Lactamase was prepared from Pseudomonas aeruginosa GN 238. This microorganism was cultured in 100 ml of a medium containing 2 g of yeast extract, 10 g of polypeptone, 2 g of glucose, 7 g of disodium hydrogen phosphate, 2 g of potassium dihydrogen phosphate, 1.2 g of ammonium sulfate and 0.4 g of magnesium sulfate, per liter, in a 500-ml Erlenmeyer flask for 6 hrs. at 37° C with shaking. The resulting cells were collected by centrifugation (5,000 r.p.m. × 10 min.), washed three times with 0.1 M phosphate buffer (pH 7.0). Subsequently, the cells were subjected to sonication (20 KHz, 20 min.) and then centrifuged at 15,000 r.p.m. for 60 min. By using the supernatant of enzyme fluid, the resistance of each compound against β-lactamase was determined by the iodometric assay method. Each numeral shown in Table 7 is a relative activity value calculated by assuming as 100 the activity of the control Potassium Penicillin G.

[19] = clinical isolate GN (number not given; Table 5-3)

CCCCCCCCN1CCN(C(=O)N[C@@H](C(=O)N[C@@H]2C(=O)N3[C@@H]2SC(C)(C)[C@@H]3C(=O)O)c2ccccc2)C(=O)C1=O (single isomer, unassigned) [compound 47]
50 µg/mL: MIC ([8]; clinical isolate GN 376) | MIC ([8]; clinical isolate S-1) | MIC ([8]; clinical isolate S-2) | MIC ([8]; clinical isolate S-3) | MIC ([8]; clinical isolate S-4) | MIC ([13]; clinical isolate SL 2136)
25 µg/mL: MIC ([8]; clinical isolate GN 221) | MIC ([8]; clinical isolate GN 383) | MIC ([8]; clinical isolate GN 1035) | MIC ([8]; clinical isolate GN 2565) | MIC [8, 19]
1%: Relative activity [18]
12.5 µg/mL: MIC ([6]; clinical isolate F-4) | MIC ([8]; clinical isolate GN 82) | MIC ([8]; clinical isolate GN 163) | MIC ([8]; clinical isolate GN 1091) | MIC ([8]; clinical isolate GN 2987) | MIC ([9]; clinical isolate GN 4081) | MIC ([9]; clinical isolate GN 4117)
3.13 µg/mL: MIC ([12]; clinical isolate SL 819)
100 µg/mL: MIC ([7]; clinical isolate K-3)
> 200 µg/mL: MIC ([6]; clinical isolate F-5) | MIC ([7]; clinical isolate GN 3611)
6.25 µg/mL: MIC [4] | MIC ([6]; clinical isolate F-1) | MIC ([6]; clinical isolate MS 8713) | MIC ([7]; clinical isolate GN 3465) | MIC [10] | MIC ([11]; clinical isolate JS 11232)
< 1.57 µg/mL: MIC [1] | MIC [2] | MIC [3] | MIC [5]
< 0.4 µg/mL: MIC ([6]; clinical isolate MS 8619) | MIC ([13]; clinical isolate SL 858) | MIC [14] | MIC [15] | MIC [16]
0.79 µg/mL: MIC ([7]; clinical isolate GN 3435) | MIC ([7]; clinical isolate K-4) | MIC ([11]; clinical isolate JS 11755) | MIC [17]
1.57 µg/mL: MIC ([12]; clinical isolate SL 2169)

CCCN1CCN(C(=O)N[C@@H](C(=O)N[C@@H]2C(=O)N3[C@@H]2SC(C)(C)[C@@H]3C(=O)O)c2ccccc2)C(=O)C1=O (single isomer, unassigned) [compound 38]
< 0.1 µg/mL: MIC [1]
15%: Relative activity [18]
0.79 µg/mL: MIC ([6]; clinical isolate F-3) | MIC ([6]; clinical isolate MS 8619) | MIC ([7]; clinical isolate GN 3435) | MIC ([7]; clinical isolate K-4) | MIC ([12]; clinical isolate SL 2169)
50 µg/mL: MIC ([7]; clinical isolate GN 3465) | MIC ([9]; clinical isolate GN 4081) | MIC ([9]; clinical isolate GN 4117) | MIC ([11]; clinical isolate JS 11232)
0.4 µg/mL: MIC [3] | MIC [5]
3.13 µg/mL: MIC ([13]; clinical isolate SL 858)
200 µg/mL: MIC ([13]; clinical isolate SL 2136)
> 200 µg/mL: MIC ([6]; clinical isolate F-5) | MIC ([7]; clinical isolate GN 3611) | MIC ([7]; clinical isolate K-3)
6.25 µg/mL: MIC [4] | MIC ([6]; clinical isolate F-1) | MIC ([6]; clinical isolate F-4) | MIC ([6]; clinical isolate MS 8713) | MIC ([8]; clinical isolate GN 221) | MIC ([8]; clinical isolate GN 383) | MIC ([8]; clinical isolate GN 2987) | MIC [8, 19] | MIC ([9]; clinical isolate GN 3850)
1.57 µg/mL: MIC ([12]; clinical isolate SL 819)
< 0.4 µg/mL: MIC [14] | MIC [15] | MIC [16]
25 µg/mL: MIC [10]
12.5 µg/mL: MIC ([8]; clinical isolate GN 1035) | MIC ([8]; clinical isolate GN 2565) | MIC ([8]; clinical isolate S-1) | MIC ([8]; clinical isolate S-2) | MIC ([8]; clinical isolate S-3) | MIC ([8]; clinical isolate S-4) | MIC [17]
